Results reported in ChEMBL document CHEMBL1201862, “PubChem BioAssay data set” (2004).
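These data come from cells grown in 96-well plates and exposed to compound for 48 hours at five concentrations. At the GI50, growth is halved.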 Active and inactive are the calls of the source. No stated cut-off is given here; in the data, active = GI50 up to about 1.1 µM and inactive = higher.

Key:
Test in all cases: NCI tumour cell line growth inhibition, 48 h
RPMI-8226 = test system: RPMI-8226
BT-549 = test system: BT-549
OVCAR-3 = test system: OVCAR-3
PC-3 = test system: PC-3
RXF 393 = test system: RXF 393
Malme-3M = test system: Malme-3M
SNB-19 = test system: SNB-19
MDA-MB-231 = test system: MDA-MB-231
HCC 2998 = test system: HCC 2998
HOP-62 = test system: HOP-62
NCI/ADR-RES = test system: NCI/ADR-RES
SF-539 = test system: SF-539
K562 = test system: K562
U-251 = test system: U-251
SN12C = test system: SN12C
CCRF-CEM = test system: CCRF-CEM
IGROV-1 = test system: IGROV-1
DU-145 = test system: DU-145
HL-60 = test system: HL-60
OVCAR-5 = test system: OVCAR-5
HCT-15 = test system: HCT-15
OVCAR-8 = test system: OVCAR-8
SK-MEL-5 = test system: SK-MEL-5
ACHN = test system: ACHN
EKVX = test system: EKVX
MOLT-4 = test system: MOLT-4
SR = test system: SR
786-0 = test system: 786-0
SK-OV-3 = test system: SK-OV-3
COLO 205 = test system: COLO 205
LOX IMVI = test system: LOX IMVI
NCI-H460 = test system: NCI-H460
HOP-92 = test system: HOP-92
HCT-116 = test system: HCT-116
KM12 = test system: KM12
M14 = test system: M14
Hs-578T = test system: Hs-578T
SK-MEL-2 = test system: SK-MEL-2
SF-295 = test system: SF-295
CAKI-1 = test system: CAKI-1
NCI-H522 = test system: NCI-H522
OVCAR-4 = test system: OVCAR-4
NCI-H226 = test system: NCI-H226
TK-10 = test system: TK-10
A498 = test system: A498
HT-29 = test system: HT-29
MDA-MB-435 = test system: MDA-MB-435
T47D = test system: T47D
UACC-62 = test system: UACC-62
MDA-N = test system: MDA-N
NCI-H23 = test system: NCI-H23
SF-268 = test system: SF-268
SNB-75 = test system: SNB-75
A549 = test system: A549
SW-620 = test system: SW-620
MCF7 = test system: MCF7

Compound: O=c1[nH]/c(=C/c2ccc(OCc3ccccc3)cn2)c(=O)[nH]/c1=C/c1cccnc1
- GI50 (RPMI-8226): 628 nM (active)
- GI50 (BT-549): 14200 nM (inactive)
- GI50 (OVCAR-3): 230 nM (active)
- GI50 (PC-3): 423 nM (active)
- GI50 (RXF 393): 574 nM (active)
- GI50 (Malme-3M): 250 nM (active)
- GI50 (SNB-19): 718 nM (active)
- GI50 (MDA-MB-231): 1920 nM (inactive)
- GI50 (HCC 2998): 1190 nM (inactive)
- GI50 (HOP-62): 497 nM (active)
- GI50 (NCI/ADR-RES): 345 nM (active)
- GI50 (SF-539): 401 nM (active)
- GI50 (K562): 318 nM (active)
- GI50 (U-251): 581 nM (active)
- GI50 (SN12C): 417 nM (active)
- GI50 (CCRF-CEM): 537 nM (active)
- GI50 (IGROV-1): 908 nM (active)
- GI50 (DU-145): 585 nM (active)
- GI50 (HL-60): 117 nM (active)
- GI50 (OVCAR-5): 1390 nM (inactive)
- GI50 (HCT-15): 254 nM
- GI50 (OVCAR-8): 1080 nM (active)
- GI50 (SK-MEL-5): 226 nM (active)
- GI50 (ACHN): 728 nM (active)
- GI50 (EKVX): 1650 nM (inactive)
- GI50 (MOLT-4): 361 nM (active)
- GI50 (SR): 500 nM (active)
- GI50 (786-0): 474 nM (active)
- GI50 (SK-OV-3): 703 nM (active)
- GI50 (COLO 205): 2070 nM (inactive)
- GI50 (LOX IMVI): 1950 nM (inactive)
- GI50 (NCI-H460): 410 nM (active)
- GI50 (HOP-92): > 35200 nM (inactive)
- GI50 (HCT-116): 342 nM (active)
- GI50 (KM12): 308 nM (active)
- GI50 (M14): 344 nM (active)
- GI50 (Hs-578T): 526 nM (active)
- GI50 (SK-MEL-2): 380 nM (active)
- GI50 (SF-295): 284 nM (active)
- GI50 (CAKI-1): 479 nM (active)
- GI50 (NCI-H522): 182 nM (active)
- GI50 (OVCAR-4): 1250 nM (inactive)
- GI50 (NCI-H226): 904 nM (active)
- GI50 (TK-10): 2180 nM (inactive)
- GI50 (A498): 209 nM (active)
- GI50 (HT-29): 759 nM (active)
- GI50 (MDA-MB-435): 84.5 nM (active)
- GI50 (T47D): 458 nM (active)
- GI50 (UACC-62): 192 nM (active)
- GI50 (MDA-N): 106 nM (active)
- GI50 (NCI-H23): 423 nM (active)
- GI50 (SF-268): 542 nM (active)
- GI50 (SNB-75): 452 nM (active)
- GI50 (A549): 804 nM (active)
- GI50 (SW-620): 420 nM (active)
- GI50 (MCF7): 378 nM (active)
